Reference: ChEMBL document CHEMBL3638467, “Aminomethyl quinolone compounds” (2013)
pIC50: −log10 of the molar value.

molecular target: Mitogen-activated protein kinase 8 (Homo sapiens, UniProt P45983); assay: In Vitro Enzyme Assay: In vitro JNK1 assay.
Sequence (P45983 whole entry): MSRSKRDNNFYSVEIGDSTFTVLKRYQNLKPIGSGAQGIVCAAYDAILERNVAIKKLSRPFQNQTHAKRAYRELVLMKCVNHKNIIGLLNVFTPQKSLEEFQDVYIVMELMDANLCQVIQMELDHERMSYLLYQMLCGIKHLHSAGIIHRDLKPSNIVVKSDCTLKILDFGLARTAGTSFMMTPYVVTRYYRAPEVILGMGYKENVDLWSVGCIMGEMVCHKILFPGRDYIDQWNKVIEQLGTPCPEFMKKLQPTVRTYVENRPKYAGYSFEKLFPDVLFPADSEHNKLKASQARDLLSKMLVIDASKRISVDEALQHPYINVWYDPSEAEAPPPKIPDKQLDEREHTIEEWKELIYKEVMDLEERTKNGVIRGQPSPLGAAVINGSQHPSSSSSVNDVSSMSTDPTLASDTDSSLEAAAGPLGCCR

pIC50 | SMILES
6.66 | CC(C)(O)CNC(=O)c1ccc(C(=O)NCc2cn(-c3ccccc3)c3cc(Cl)ccc3c2=O)cc1
7.40 | O=C(NCc1cn(-c2ccccc2F)c2cc(F)ccc2c1=O)c1cnn(-c2ccccc2)c1
8.10 | COC(=O)c1c(CNC(=O)c2cnc(N3CCOCC3)s2)c(=O)c2ccc(Cl)cc2n1-c1ccccc1
